Data on 33 compounds can be found in US11878966B2, “Substituted 4-benzyl and 4-benzoyl piperidine derivates” (89BIO LTD, priority 2015, dated 2024).

The IC50 is the concentration at which inhibition is half-maximal.

T1 sequence (P49327 whole entry): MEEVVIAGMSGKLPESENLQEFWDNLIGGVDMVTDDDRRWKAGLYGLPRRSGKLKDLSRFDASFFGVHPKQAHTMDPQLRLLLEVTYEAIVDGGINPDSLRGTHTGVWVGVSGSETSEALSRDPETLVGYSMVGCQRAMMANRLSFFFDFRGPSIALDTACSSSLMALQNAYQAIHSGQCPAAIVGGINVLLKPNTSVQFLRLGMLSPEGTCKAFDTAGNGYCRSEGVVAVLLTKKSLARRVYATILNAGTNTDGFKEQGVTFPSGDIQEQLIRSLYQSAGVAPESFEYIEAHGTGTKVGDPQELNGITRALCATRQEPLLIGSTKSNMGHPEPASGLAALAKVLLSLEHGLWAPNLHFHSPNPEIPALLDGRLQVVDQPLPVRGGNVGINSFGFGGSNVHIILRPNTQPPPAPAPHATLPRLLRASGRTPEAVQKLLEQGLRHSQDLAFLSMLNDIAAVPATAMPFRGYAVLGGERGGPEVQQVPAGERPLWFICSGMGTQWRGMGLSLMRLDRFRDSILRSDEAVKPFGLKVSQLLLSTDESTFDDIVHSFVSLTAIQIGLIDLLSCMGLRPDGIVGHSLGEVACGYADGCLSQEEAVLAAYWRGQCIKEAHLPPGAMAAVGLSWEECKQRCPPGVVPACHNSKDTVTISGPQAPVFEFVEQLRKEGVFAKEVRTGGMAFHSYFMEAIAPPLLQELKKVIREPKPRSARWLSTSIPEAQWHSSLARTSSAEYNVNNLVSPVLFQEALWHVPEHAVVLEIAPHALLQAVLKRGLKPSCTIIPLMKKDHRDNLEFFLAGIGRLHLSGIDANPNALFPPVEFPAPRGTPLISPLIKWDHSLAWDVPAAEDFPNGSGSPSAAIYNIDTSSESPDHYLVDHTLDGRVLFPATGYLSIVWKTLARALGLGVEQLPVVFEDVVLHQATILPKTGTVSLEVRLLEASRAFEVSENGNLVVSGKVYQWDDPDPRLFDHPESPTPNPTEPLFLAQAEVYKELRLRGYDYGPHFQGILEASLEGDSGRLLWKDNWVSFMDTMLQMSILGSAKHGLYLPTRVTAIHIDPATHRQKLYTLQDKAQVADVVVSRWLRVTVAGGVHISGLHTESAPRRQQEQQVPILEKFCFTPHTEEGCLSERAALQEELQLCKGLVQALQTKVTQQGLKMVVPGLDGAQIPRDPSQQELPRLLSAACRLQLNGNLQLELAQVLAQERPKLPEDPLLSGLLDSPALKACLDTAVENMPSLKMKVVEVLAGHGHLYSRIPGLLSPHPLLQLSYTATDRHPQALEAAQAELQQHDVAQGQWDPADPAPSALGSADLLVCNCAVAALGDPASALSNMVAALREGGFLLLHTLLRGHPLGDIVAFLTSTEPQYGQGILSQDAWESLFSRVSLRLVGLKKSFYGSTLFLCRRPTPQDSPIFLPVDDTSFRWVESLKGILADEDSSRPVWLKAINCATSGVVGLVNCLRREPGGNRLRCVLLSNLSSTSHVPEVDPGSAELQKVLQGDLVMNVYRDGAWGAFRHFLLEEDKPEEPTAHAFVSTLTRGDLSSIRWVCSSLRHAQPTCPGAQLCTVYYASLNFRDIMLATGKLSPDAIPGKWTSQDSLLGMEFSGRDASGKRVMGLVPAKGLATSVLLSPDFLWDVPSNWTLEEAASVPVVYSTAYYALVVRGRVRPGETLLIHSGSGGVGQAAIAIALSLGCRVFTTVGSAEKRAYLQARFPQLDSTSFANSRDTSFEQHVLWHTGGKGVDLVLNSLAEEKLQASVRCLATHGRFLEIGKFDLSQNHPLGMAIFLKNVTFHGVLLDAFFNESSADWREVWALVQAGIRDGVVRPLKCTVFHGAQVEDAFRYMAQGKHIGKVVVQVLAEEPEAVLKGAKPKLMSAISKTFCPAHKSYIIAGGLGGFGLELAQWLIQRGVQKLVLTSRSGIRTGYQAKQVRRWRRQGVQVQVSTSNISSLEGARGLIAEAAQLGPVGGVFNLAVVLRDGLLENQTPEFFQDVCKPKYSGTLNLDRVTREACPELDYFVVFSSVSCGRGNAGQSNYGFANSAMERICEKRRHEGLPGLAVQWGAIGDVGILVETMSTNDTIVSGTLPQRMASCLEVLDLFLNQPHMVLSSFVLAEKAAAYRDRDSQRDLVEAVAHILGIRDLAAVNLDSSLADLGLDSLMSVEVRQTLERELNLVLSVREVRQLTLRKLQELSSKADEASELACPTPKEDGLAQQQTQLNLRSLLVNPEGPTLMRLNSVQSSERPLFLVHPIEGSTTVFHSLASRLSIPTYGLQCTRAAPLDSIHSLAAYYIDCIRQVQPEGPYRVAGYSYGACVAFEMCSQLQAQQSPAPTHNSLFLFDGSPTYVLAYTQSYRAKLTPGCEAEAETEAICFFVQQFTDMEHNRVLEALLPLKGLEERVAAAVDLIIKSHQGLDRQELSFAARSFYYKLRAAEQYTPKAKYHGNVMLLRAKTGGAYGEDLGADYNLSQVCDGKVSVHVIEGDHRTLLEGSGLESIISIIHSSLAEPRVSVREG

The assay has as its target T1, recombinant human baculovirus-expressed GST-tagged FASN (Homo sapiens, UniProt P49327).
T1 construct: GST; host or cells: baculovirus expression system (insect cells implied)
Kind of assay: FASN enzyme activity assay: fluorescence-based detection of CoA with CPM. The note with it: 5 nM FASN, 150 μM NADPH, 10 μM acetyl-CoA, 25 μM malonyl-CoA, 90 minutes incubation. In kind it is biochemical. The source says: FASN Enzyme activity may be determined by detecting coenzyme A (CoA), a product of FASN-catalyzed synthesis of palmitate from acetyl-CoA and malonyl-CoA with NADPH as a cofactor. The assay is fluorescence-based and measures the interaction of free CoA with 7-diethylamino-3-(4′-malemimidylphenyl)-4-methylcoumarin (CPM; Life Technologies, CA) as described in Chung et al (2008). The coumarin derivative CPM contains a thiol-reactive maleimide that becomes fluorescent upon interaction with the sulfhydryl group of CoA.
For the example compounds described herein, the reaction was performed in 384-well low volume non-binding platews (Corning, NY) using recombinant human baculovirus-expressed GST-tagged FASN. The 20-μL assay mixture contained 50 mM HEPES (pH 7.5), 5 nM FASN, 150 μM NADPH (Sigma, St. Louis, MO), 10 μM acetyl-CoA (Sigma), 25 μM malonyl-CoA (Sigma) and test compound [diluted in dimethyl sulfoxide (DMSO); 0.5% DMSO final in assay after 100 nL addition]. See, Chung et al.; “A fluorescence-based thiol quantification assay for ultra-high-throughput screening for inhibitors of coenzyme A production,” Assay Drug Dev Tech 2008; 6:361-374.
The reaction was initiated by adding malonyl-CoA, followed by incubation for 90 minutes at […]. A stock solution of the CPM reagent was prepared in DMSO al 66 μM and stored at […]. To detect CoA produced in the FASN reaction, the CPM stock was diluted to 50 μM in 70% ethanol and added at 4 μL/well to the assay place. The reaction mixture was then incubated for 30 minutes. Fluorescence was measured using the EnVision™ 2102 multi-label plate reader (PerkinElmer, Waltham, MA) utilizing a general dual mirror, a 390 nm excitation filter and a 530 nm emission filter. Data analysis was performed using ActivityBase (IDBS, Guilford, UK). IC50 values were calculated by plotting the percent inhibition versus log 10 of the concentration of the compound, and fitting to the nonlinear regression sigmoidal dose-response (variable slope) equation in XLFit (IDBS).
With `CCC(=O)N1CCC(Cc2ccc(-c3cnc4ccccc4c3C)cc2)CC1` [Example 12, 1-{4-[4-(4-Methylquinolin-3-yl)-benzyl]-piperidin-1-yl}-propan-1-one], the IC50 fell in the range of 1 to 99 nM.
For the compound `CN(C)S(=O)(=O)N1CCC(C2(c3ccc(-c4ccc5ncccc5c4)cc3)OCCO2)CC1` [Example 100, 4-[2-(4-Quinolin-6-yl-phenyl)-1,3-dioxolan-2-yl]-piperidine-1-sulfonic acid dimethylamide], the IC50 lay in the range of 1000 to 10000 nM.
With `CCC(=O)N1CCC(F)(C(OC)c2ccc(-c3ccc4cccnc4c3C)cc2)CC1` (stereo not drawn) [Example 225, 1-(4-Fluoro-4-{methoxy-[4-(8-methyl-quinolin-7-yl)-phenyl]-methyl}-piperidin-1-yl)-propan-1-one], the concentration for half-maximal inhibition (IC50) was 1 to 99 nM.
Next, `CCC(=O)N1CCC(C(C)c2ccc(-c3cnc4ccccc4c3)cc2)CC1` (single isomer, unassigned) [Example 67, 1-{4-[1-(4-Quinolin-3-yl-phenyl)-ethyl]-piperidin-1-yl}-propan-1-one]: 1 to 99 nM; `CCOC(C)(c1ccc(-c2ccc3cccnc3c2)cc1)C1CCN(C(=O)CC)CC1` (stereo not drawn) [Example 214, 1-{4-[1-Ethoxy-1-(4-quinolin-7-yl-phenyl)-ethyl]-piperidin-1-yl}-propan-1-one]: 100 to 999 nM.
With `CCC(=O)N1CCC(C)(C(=O)c2ccc(-c3cnc4ccccc4c3)cc2)CC1` [Example 56, 1-[4-Methyl-4-(4-quinolin-3-yl-benzoyl)-piperidin-1-yl]-propan-1-one] the figure was 100 to 999 nM.
With `CCC(=O)N1CCC(C(NC=O)c2ccc(-c3cnc4ccccc4c3)cc2)CC1` (stereo not drawn) [Example 55, N-[(1-Propionylpiperidin-4-yl)-(4-quinolin-3-yl-phenyl)-methyl]-formamide], the IC50 was in the range of 1000 to 10000 nM.
As for `CCC(=O)N1CC=C(Cc2ccc(-c3cnc4ccccc4c3Cl)cc2)CC1` [Example 194, 1-(4-(4-(4-Chloroquinolin-3-yl)benzyl)-3,6-dihydropyridin-1(2H)-yl)propan-1-one], the IC50 fell in the range of 100 to 999 nM.
Next, `CCC(=O)N1CCC(F)(Cc2ccc(-c3cncc4ccccc34)cc2)CC1` [Example 167, 1-(4-fluoro-4-(4-(isoquinolin-4-yl)benzyl)piperidin-1-yl)propan-1-one]: 1 to 99 nM.
With `CCC(=O)N1CCC(C(CC)(OC)c2ccc(-c3cnc4ccccc4c3)cc2)CC1` (stereo not drawn) [Example 210, 1-{4-[1-Methoxy-1-(4-quinolin-3-yl-phenyl)-propyl]-piperidin-1-yl}-propan-1-one] the figure was 1000 to 10000 nM; with `CCC(=O)N1CCC(F)(C(O)c2ccc(-c3ccc4cccnc4c3C)cc2)CC1` (stereo not drawn) [Example 223], 1 to 99 nM; with `Cc1c(-c2ccc(CC3CCN(C(=O)C4CC4)CC3)cc2)ccc2cccnc12` [Example 24, Cyclopropyl-{4-[4-(8-methylquinolin-7-yl)-benzyl]-piperidin-1-yl}-methanone], 1 to 99 nM.
On to `O=C(C1CC1)N1CC=C(Cc2ccc(-c3cncc4ccccc34)cc2)CC1` [Example 178, Cyclopropyl(4-(4-(isoquinolin-4-yl)benzyl)-5,6-dihydropyridin-1(2H)-yl)methanone], for which the IC50 was in the range of 100 to 999 nM.
Consider `CCC(=O)N1CCC(C(=O)c2ccc(-c3ccc4cnccc4c3)cc2)CC1` [Example 129, 1-[4-(4-Isoquinolin-6-yl-benzoyl)-piperidin-1-yl]-propan-1-one], for which the half-maximal inhibitory concentration (IC50) fell in the range of 1000 to 10000 nM.
Next, `CC(c1ccc(-c2cnc3ccccc3c2)cc1)C1CCN(C=O)CC1` (stereo not drawn) [Example 60, 4-[1-(4-Quinolin-3-yl-phenyl)-ethyl]-piperidine-1-carbaldehyde]: 1000 to 10000 nM; `O=C(C1CC1)N1CCC(F)(Cc2ccc(-c3cnc4ccccc4c3)cc2)CC1` [Example 171, Cyclopropyl(4-fluoro-4-(4-(quinolin-3-yl)benzyl)piperidin-1-yl)methanone]: 1 to 99 nM; `CCC(=O)N1CCC(C(=NOC)c2ccc(-c3ccc4cccnc4c3)cc2)CC1` (racemic) [Example 50, 1-{4-[[Methoxyimino]-(4-quinolin-7-yl-phenyl)-methyl]-piperidin-1-yl}-propan-1-one]: 1 to 99 nM.
Take `CCC(=O)N1CCC(C2(c3ccc(-c4ccc5cccnc5c4)cc3)OCCO2)CC1` [Example 114, 1-{4-[2-(4-Quinolin-7-yl-phenyl)-1,3-dioxolan-2-yl]-piperidin-1-yl}-propan-1-one]: the half-maximal inhibitory concentration (IC50) was 100 to 999 nM.
With `CC(c1ccc(-c2cnc3ccccc3c2)cc1)C1CCN(C(=O)C2CC2)CC1` (stereo not drawn) [Example 58, Cyclopropyl-{4-[1-(4-quinolin-3-yl-phenyl)-ethyl]-piperidin-1-yl}-methanone] the figure was 1 to 99 nM; with `CCNC(=O)N1CCC(Cc2ccc(-c3ccc4cccnc4c3OC)cc2)CC1` [Example 230, N-ethyl-4-[[4-(8-methoxy-7-quinolyl)phenyl]methyl]piperidine-1-carboxamide], 1 to 99 nM.
With `Cc1nccc2cc(-c3ccc(C(OCCN4CCCC4)C4CCN(C(=O)[C@H]5CCCO5)CC4)cc3)ccc12` (stereo partly drawn) [Example 90, {4-[[4-(1-Methylisoquinolin-6-yl)phenyl]-(2-pyrrolidin-1-yl-ethoxy)-methyl]-piperidin-1-yl}-(R)-tetrahydrofuran-2-yl-methanone] the figure was 100 to 999 nM; with `Cc1c(-c2ccc(CC3=CCN(C(=O)C4CC4)CC3)cc2)cnc2ccccc12` [Example 192, Cyclopropyl(4-(4-(4-methylquinolin-3-yl)benzyl)-5,6-dihydropyridin-1(2H)-yl)methanone], 100 to 999 nM.
Next, `COC(C)(c1ccc(-c2ccc3cccnc3c2)cc1)C1CCN(C(=O)C2CC2)CC1` (stereo not drawn) [Example 213, Cyclopropyl-{4-[1-methoxy-1-(4-quinolin-7-yl-phenyl)-ethyl]-piperidin-1-yl}-methanone]: 100 to 999 nM; `Cc1c(-c2ccc(CC3CCN(C(=O)N4CCCC4)CC3)cc2)ccc2cccnc12` [Example 234, [4-[[4-(8-methyl-7-quinolyl)phenyl]methyl]-1-piperidyl]-pyrrolidin-1-yl-methanone]: 1 to 99 nM.
`O=C(C1CC1)N1CCC(C2(c3ccc(-c4ccc5cccnc5c4)cc3)CC2)CC1` [Example 45, Cyclopropyl-{4-[1-(4-quinolin-7-yl-phenyl)-cyclopropyl]-piperidin-1-yl}-methanone]: the IC50 is 100 to 999 nM.
On to `O=C([C@H]1CCCO1)N1CCC(Cc2ccc(-c3cc4ccccc4cn3)cc2)CC1` [Example 28, [4-(4-Isoquinolin-3-yl-benzyl)-piperidin-1-yl]-(R)-tetrahydrofuran-2-yl-methanone], for which the half-inhibitory concentration (IC50) is 1 to 99 nM.
Next, `Cc1c(-c2ccc(C(C)C3CCN(C(=O)C4CC4)CC3)cc2)ccc2cccnc12` (stereo not drawn) [Example 63, Cyclopropyl-(4-{1-[4-(8-methylquinolin-7-yl)-phenyl]-ethyl}-piperidin-1-yl)-methanone]: 1 to 99 nM; `Cc1c(-c2ccc(C(C)C3CCN(C(=O)[C@H]4CCCO4)CC3)cc2)ccc2cccnc12` (mixture of isomers) [Example 70, (4-{1-[4-(8-Methylquinolin-7-yl)-phenyl]-ethyl}-piperidin-1-yl)-(R)-tetrahydrofuran-2-yl-methanone]: 1 to 99 nM.
`CCC(=O)N1CCC(C(CC)(OC)c2ccc(-c3ccc4cccnc4c3)cc2)CC1` (stereo not drawn) [Example 216, 1-{4-[1-Methoxy-1-(4-quinolin-7-yl-phenyl)-propyl]-piperidin-1-yl}-propan-1-one]: the concentration for half-maximal inhibition (IC50) was in the range of 1000 to 10000 nM.
For the compound `CCC(=O)N1CCC(C(C)(C)c2ccc(-c3cnc4ccccc4c3)cc2)CC1` [Example 205, 1-(4-(2-(4-(quinolin-3-yl)phenyl)propan-2-yl)piperidin-1-yl)propan-1-one], the concentration for half-maximal inhibition (IC50) fell in the range of 100 to 999 nM.
`Cc1c(-c2ccc(CC3CCN(C(=O)C4CC4)CC3)cc2)cnc2ccccc12` [Example 13, Cyclopropyl-{4-[4-(4-methylquinolin-3-yl)-benzyl]-piperidin-1-yl}-methanone]: the IC50 is 1 to 99 nM.
For `COc1c(-c2ccc(C(C)C3CCN(C(=O)C4CC4)CC3)cc2)ccc2cccnc12` (stereo not drawn) [Example 66, Cyclopropyl-(4-{1-[4-(8-methoxyquinolin-7-yl)-phenyl]-ethyl}-piperidin-1-yl)-methanone], the concentration for half-maximal inhibition (IC50) lay within 1 to 99 nM.
`O=C([C@H]1CCCO1)N1CCC(F)(Cc2ccc(-c3cnc4ccccc4c3Cl)cc2)CC1` [Example 201, (R)-(4-(4-(4-chloroquinolin-3-yl)benzyl)-4-fluoropiperidin-1-yl)(tetrahydrofuran-2-yl)methanone]: the IC50 lay within 1 to 99 nM.
